The subject of one test is Staphylococcus aureus. In words: Antibacterial activity against Staphylococcus aureus (erythromycin- resistant, methicillin-resistant, ciprofloxacin- resistant) was determined. The test is classed as functional.
The nature of test [1]: Antibacterial activity against Enterococcus faecalis (vancomycin-resistant, methicillin-resistant, ciprofloxacin-resistant). Format: functional, erythromycin faecalis.
Test [2] can be described thus: Antibacterial activity against Enterococcus faecium (vancomycin-resistant, erythromycin-resistant, ciprofloxacin-resistant). Format: functional.

Converted amounts (≈) assume the structure as drawn. Numbered stars: 1 amine (or outer) side, 2 acyl side, 3 side chain; on linkers, the order of the positions; unused ones are H or OH. Bridge positions count the residues as written; N and C are the ends. Square brackets hold non-standard residues; d marks the D form. Side chains are listed from the residue outwards. Peptide text beside a SMILES is read from it. * marks the point of attachment. ξ: configuration not given here. NH(4-cHex-phenyl) = c1cc(C2CCCCC2)ccc1N*; X1 = NC1=NCCC([C@H](N[*:1])C(=O)[*:2])N1; X2 = N=C1NCCC([C@H](N[*:1])C(=O)[*:2])N1; ΔAla(Z-3-ureido) = NC(=O)N/C=C(\N)C(=O)O; ΔDap(Z) = O=C(/C(=C/N[*:3])N[*:1])[*:2]; β3hR = N=C(N)NCCC[C@H](N)CC(=O)O; β3hOrn = NCCC[C@H](N)CC(=O)*; ξβ3hOrn = NCCCC(N)CC(=O)*; Dap = NC[C@H](N)C(=O)O; X3 = NCC[C@H](O)C(=O)*; CO = O=C([*:1])[*:2]; ξDap = NCC(N)C(=O)O A value given as a limit tells only on which side of the number the result lay.

On to `NC1=NC([C@H]2NC(=O)/C(=C/NC(=O)Nc3ccc(C4CCCCC4)cc3)NC(=O)[C@@H](CO)NC(=O)[C@@H](CO)NC(=O)C(NC(=O)Nc3ccc(Br)cc3)CNC2=O)CCN1` (stereo not given in full), for which the MIC was found to be 12.5 µg/mL (≈ 13.9 µM) in the test on Staphylococcus aureus, 12.5 µg/mL (≈ 13.9 µM) in test [1] and 6.25 µg/mL (≈ 6.96 µM) in test [2].

On to `CN[C@H](CC(C)C)C(=O)N[C@H]1C(=O)N[C@@H](CC(N)=O)C(=O)N[C@H]2C(=O)N[C@H]3C(=O)N[C@H](C(=O)N[C@H](C(=O)O)c4cc(O)cc(O)c4-c4cc3ccc4O)[C@H](O)c3ccc(c(Cl)c3)Oc3cc2cc(c3O[C@@H]2O[C@H](CO)[C@@H](O)[C@H](O)[C@H]2O[C@H]2C[C@](C)(N)[C@H](O)[C@H](C)O2)Oc2ccc(cc2Cl)[C@H]1O` [VANCOMYCIN], for which the MIC in the test with Staphylococcus aureus was 0.78 µg/mL (≈ 0.538 µM); in test [1], over 100 µg/mL; in test [2] it was over 100 µg/mL.

Consider `NCC1NC(=O)[C@H](CO)NC(=O)[C@H](CO)NC(=O)C(NC(=O)Nc2ccc(C3CCCCC3)cc2)CNC(=O)[C@H](C2CCN=C(N)N2)NC1=O` (stereo not given in full) ({NH(4-cHex-phenyl)-CO}-[ξDap]SS[ξDap][X1]; lactam 1-C), for which the MIC (in the test with Staphylococcus aureus; in test [1]; in test [2]) was over 100 µg/mL throughout.

Consider `NCC[C@@H](O)[C@H](N)CC(=O)NC1CNC(=O)[C@@H](C2CCN=C(N)N2)NC(=O)/C(=C/Nc2ccc(Cl)c(Cl)c2)NC(=O)[C@@H](CO)NC(=O)[C@@H](CO)NC1=O` (stereo not given in full), for which the MIC in the test with Staphylococcus aureus was determined as 12.5 µg/mL (≈ 15.9 µM); in test [1] it was 50 µg/mL (≈ 63.5 µM); in test [2], 25 µg/mL (≈ 31.7 µM).

As for `NCCC[C@H](N)CC(=O)NC[C@@H]1NC(=O)[C@H](CO)NC(=O)C(N)CNC(=O)[C@H](C2CCN=C(N)N2)NC(=O)/C(=C/NC(=O)Nc2ccc(C3CCCCC3)cc2)NC1=O` (stereo partly drawn) (H-[ξDap]S[Dap](β3hOrn)[ΔDap(Z)]([CO-NH(4-cHex-phenyl)])[X1]; lactam 1-C), the MIC came to 1.56 µg/mL (≈ 1.89 µM) with Staphylococcus aureus, 3.12 µg/mL (≈ 3.77 µM) in test [1] and 3.12 µg/mL (≈ 3.77 µM) in test [2].

As to `O=C(N/N=C/c1cccc2c(OCc3ccc(OC(F)(F)F)cc3)cccc12)c1ccc(O)c(Cl)c1`, the MIC against Staphylococcus aureus came to 25 µg/mL (≈ 48.6 µM); in test [1], 12.5 µg/mL (≈ 24.3 µM); in test [2] it was 3.12 µg/mL (≈ 6.06 µM).

`NCCCNCCC(=O)NC1CNC(=O)[C@@H](C2CCN=C(N)N2)NC(=O)/C(=C/Nc2ccc(Cl)c(Cl)c2)NC(=O)[C@@H](CO)NC(=O)[C@@H](CO)NC1=O` (stereo not given in full): the MIC (in the test with Staphylococcus aureus; in test [1]; in test [2]) was 50 µg/mL (≈ 64.8 µM) each time.

As for `NC(N)=NCCC[C@H](N)CC(=O)NC[C@@H]1NC(=O)[C@H](CO)NC(=O)C(N)CNC(=O)[C@H](C2CCN=C(N)N2)NC(=O)/C(=C/NC(=O)Nc2ccc(C3CCCCC3)cc2)NC1=O` (stereo partly drawn) (H-[ξDap]S[Dap](β3hR)[ΔDap(Z)]([CO-NH(4-cHex-phenyl)])[X1]; lactam 1-C), the figures for the MIC (against Staphylococcus aureus; in test [1]; in test [2]) were 1.56 µg/mL (≈ 1.8 µM), 3.12 µg/mL (≈ 3.59 µM) and 3.12 µg/mL (≈ 3.59 µM), respectively.

Take `C[C@@H]1NC(=O)[C@@H](N)CNC(=O)[C@H](C2CCNC(=N)N2)NC(=O)/C(=C/NC(N)=O)NC(=O)[C@H](CNC(=O)CC(N)CCCN)NC1=O.N=C1NCCC([C@@H]2NC(=O)/C(=C/NC(N)=O)NC(=O)[C@H](CNC(=O)CC(N)CCCN)NC(=O)[C@H](CO)NC(=O)[C@@H](N)CNC2=O)N1` (stereo partly drawn) [CAPREOMYCIN] (H-[Dap]S[Dap](ξβ3hOrn)[ΔAla(Z-3-ureido)][X2]; lactam 1-C): the MIC in the test on Staphylococcus aureus was 100 µg/mL; in test [1], over 1000 µg/mL; in test [2] it was over 1000 µg/mL.

`NCCC[C@H](N)CC(=O)NC[C@@H]1NC(=O)[C@H](CO)NC(=O)C(NC(=O)[C@@H](O)CCN)CNC(=O)[C@H](C2CCN=C(N)N2)NC(=O)/C(=C/NC(=O)Nc2ccc(C3CCCCC3)cc2)NC1=O` (stereo partly drawn) (X3-[ξDap]S[Dap](β3hOrn)[ΔDap(Z)]([CO-NH(4-cHex-phenyl)])[X1]; lactam 1-C): the figures for the minimum inhibitory concentration (MIC) (with Staphylococcus aureus; in test [1]; in test [2]) were 3.12 µg/mL (≈ 3.36 µM), 6.25 µg/mL (≈ 6.73 µM) and 6.25 µg/mL (≈ 6.73 µM), respectively.

In general, MIC refers to the lowest concentration that inhibits growth of the organism.
